Results as given in PubChem BioAssay (NCI).
Values joined by “and” are separate entries in the source; they are usually repeats but may differ in a detail not shown here. Equal values may be shown once.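 Following 48 hours of exposure in 96-well plates, responses at five concentrations were used to interpolate endpoints linearly. GI50: concentration for 50% inhibition of growth. The concentration for full growth arrest is given as TGI.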

Key:
Test in all cases: NCI tumour cell line growth inhibition, 48 h
M19-MEL melanoma = system: M19-MEL melanoma
RXF-631 renal = system: RXF-631 renal
SNB-78 CNS = system: SNB-78 CNS
HOP-18 NSCLC = system: HOP-18 NSCLC
DLD-1 colon = system: DLD-1 colon
T-47D breast = system: T-47D breast
MDA-N = system: MDA-N
XF 498 CNS = system: XF 498 CNS
NCI/ADR-RES ovarian = system: NCI/ADR-RES ovarian
SN12K1 renal = system: SN12K1 renal
P388 leukemia = system: P388 leukemia
P388/ADR leukemia = system: P388/ADR leukemia

| Structure (SMILES) | TGI (M19-MEL melanoma) [µM] | TGI (RXF-631 renal) [µM] | TGI (SNB-78 CNS) [µM] | TGI (HOP-18 NSCLC) [µM] | TGI (DLD-1 colon) [µM] | TGI (T-47D breast) | TGI (MDA-N) | TGI (XF 498 CNS) [µM] | GI50 (NCI/ADR-RES ovarian) [µM] | TGI (NCI/ADR-RES ovarian) | TGI (SN12K1 renal) [µM] | TGI (P388 leukemia) [µM] | TGI (P388/ADR leukemia) [µM] |
| --- | --- | --- | --- | --- | --- | --- | --- | --- | --- | --- | --- | --- | --- |
| Nc1ccc2cc3ccc(N)cc3nc2c1 | 4.07 | 4.41 | 9.23 | 8.41 | 10.5 | 14.9 µM and 9.61 µM and 8.53 µM | 3.79 µM and 2.77 µM | 5.8 | 1.21 | 5.25 µM and 5.26 µM and 11.2 µM | – | – | – |
| CCCSc1nc(COC(=O)NC)c(COC(=O)NC)n1C | > 100 | – | > 100 | > 100 | > 100 | – | – | > 100 | – | > 100 µM | > 100 | 54.8 | 61.8 |
| CC(C)(C)c1cc(C(O)(C(F)(F)F)C(F)(F)F)c2c(c1)C(C(F)(F)F)(C(F)(F)F)OC(C(C)(C)C)N2 (stereo not given) | 12.9 | 19 | 14.2 | 9.34 | 16.5 | – | – | 1.84 | – | – | – | – | – |
